US5262157A (priority 1988, dated 1993)

Experiments:
Pneumocystis carinii = test: Experimental rat model of Pneumocystis carinii pneumonia (PCP); type: in vivo; settings: for Cysts/hpf in lung at necropsy: high power field 400×
Description: (§1) Rats were treated in groups of four. […] Doses in all trials were calculated as above.
Treatment regimens were tested in the standard animal model of PCP (6). To induce infection with P. carinii, rats were immunosuppresed with steriods for twelve weeks while restricted to a low-protein diet and tetracycline. Administration of a test regimen was initiated early during the induction period to determine its effectiveness in preventing PCP and was initiated late during the induction period to determine its effectiveness in treating PCP. Male Sprague-Dawley rats weighing 175-225 g were used. Rats were given twice weekly subcutaneous injections of 75 mg/kg of cortisone acetate, were maintained on an 8% protein diet, and were treated with tetracycline via their drinking water. Rats were sacrificed after twelve weeks of this regimen and the extent of infection was judged by counting cysts in toluidine blue 0-stained smears of lung homogenates. Lung homogenates were prepared by combining a weighed portion of tissue with nine ml of 0.1N HCl per g.

in vivo = settings: rat; for concentration at 24 h: inhaled or intranasal, 3.2 mg/kg/day, aerosol 3.2 mg/kg daily × 4, 24 h after last dose
Description: as §1
Treatments were well-tolerated. […] There were rare foci of mild thickening of interalveolar septae containing a few histiocytes and some congestion. […] These were also seen in sections from control animals and are common findings in normal rat lung.

[1] = Trial I, 0.4 mg/kg aerosol weekly, wk 5-11, mean ± standard deviation
[2] = Trial I, 4.0 mg/kg IM weekly, wk 5-11, mean ± standard deviation
[3] = Trial I, prophylactic aerosol 0.4 mg/kg weekly, weeks 5-11
[4] = Trial II, 0.2 mg/kg aerosol weekly, wk 7-11, mean ± standard deviation
[5] = Trial II, 0.4 mg/kg aerosol daily, 4×, wk 10, mean ± standard deviation
[6] = Trial III, 0.4 mg/kg aerosol biweekly, wks 7, 9, 11, mean ± standard deviation
[7] = Trial III, 0.4 mg/kg aerosol daily, 4×, wk 12, mean ± standard deviation
[8] = Trial III, 0.8 mg/kg aerosol monthly, wks 4, 8, mean ± standard deviation

## N=C(N)c1ccc(OCCCCCOc2ccc(C(=N)N)cc2)cc1 [pentamidine, Pentamidine isethionate]
Pneumocystis carinii; Trial I, 0.4 mg/kg aerosol weekly, wk 5-11
  Cysts/hpf in lung at necropsy: < 1 Cysts/hpf
Pneumocystis carinii; [1]
  Lung weight at necropsy: 1.94 ± 0.21 g
  Pent in lung at necropsy: 29.7 ± 7.1 µg/g
Pneumocystis carinii; [2]
  Cysts/hpf in lung at necropsy: 102 ± 88 Cysts/hpf
  Lung weight at necropsy: 3.28 ± 1.15 g
  Pent in lung at necropsy: 4.5 ± 1.7 µg/g
Pneumocystis carinii; Trial I, aerosol 0.4 mg/kg vs IM 4.0 mg/kg weekly
  effectiveness in prevention of PCP, aerosol versus IM: more effective in prevention of PCP than tenfold higher doses of IM pentamidine
Pneumocystis carinii; [3]
  cysts of P. carinii in stained smears of lung homogenates: rare or absent
  lung weight and appearance: normal in weight and appearance
  severity of infection versus control animals: more than a thousandfold less severe infection than was seen in control animals
Pneumocystis carinii; [4]
  Lung weight at necropsy: 1.43 ± 0.31 g
  Pent in lung at necropsy: 15.2 ± 5.0 µg/g
Pneumocystis carinii; [5]
  Cysts/hpf in lung at necropsy: 20.8 ± 30.8 Cysts/hpf
  Lung weight at necropsy: 1.20 ± 0.20 g
  Pent in lung at necropsy: 15.8 ± 10.9 µg/g
Pneumocystis carinii; Trial II, aerosol weekly, weeks 7-11, 0.1 mg/kg
  effectiveness of prophylactic regimen: effective
Pneumocystis carinii; [6]
  Cysts/hpf in lung at necropsy: 48 ± 109 Cysts/hpf
  Lung weight at necropsy: 1.41 ± 0.64 g
  Pent in lung at necropsy: 13.4 ± 7.9 µg/g
Pneumocystis carinii; [7]
  Cysts/hpf in lung at necropsy: 188 ± 255 Cysts/hpf
  Lung weight at necropsy: 2.08 ± 0.68 g
  Pent in lung at necropsy: 8.3 ± 6.4 µg/g
Pneumocystis carinii; [8]
  Cysts/hpf in lung at necropsy: 4.6 ± 4.2 Cysts/hpf
  Lung weight at necropsy: 1.26 ± 0.26 g
  Pent in lung at necropsy: 16.1 ± 3.3 µg/g
Pneumocystis carinii; Trial III, aerosol 0.8 mg/kg monthly and 0.4 mg/kg biweekly
  effectiveness of prophylactic regimens: effective
Pneumocystis carinii; low and infrequent aerosol treatment
  prevention of PCP in the animal model: highly effective in prevention of PCP
Pneumocystis carinii; normal animals and early prophylactic doses vs animals treated with severe pneumonia
  retention of aerosol pentamidine: greater in normal animals and in animals that received early prophylactic doses than it was in animals who were treated when they had severe pneumonia
Pneumocystis carinii; rat, in vivo
  effectiveness of therapeutic regimen: partially effective
Pneumocystis carinii; within the prophylaxis and treatment groups
  number of cysts versus lung pentamidine concentration: the lowest number of cysts were found in animals with the highest concentrations of pentamidine in the lung
In vivo; kidney
  concentration at 24 h: 7200 ng/g
In vivo; lung
  concentration at 24 h: 291000 ng/g
In vivo; aerosol 3.2 mg/kg daily × 4
  lung weight and appearance: normal in weight and appearance
  toxicity of high lung concentrations: little or no toxicity
In vivo; aerosol 3.2 mg/kg daily × 4 (total dose 12.8 mg/kg)
  tolerability of treatments: well-tolerated
In vivo; aerosol 3.2 mg/kg daily × 4, stained sections
  histopathology of lungs: no histopathologic changes were found
